IC50 data for 15 compounds are collected here from patent US8163724B2, “Glucocorticosteroids, processes for their preparation, pharmaceutical compositions containing them and their use in therapy” (AstraZeneca AB, priority 2007, dated 2012).

This assay concerns the target T1, recombinant human GR (Homo sapiens, UniProt P04150).
T1 construct: purchased Panvera/Invitrogen P2812 (kit P2893)
T1 sequence (P04150 1-777): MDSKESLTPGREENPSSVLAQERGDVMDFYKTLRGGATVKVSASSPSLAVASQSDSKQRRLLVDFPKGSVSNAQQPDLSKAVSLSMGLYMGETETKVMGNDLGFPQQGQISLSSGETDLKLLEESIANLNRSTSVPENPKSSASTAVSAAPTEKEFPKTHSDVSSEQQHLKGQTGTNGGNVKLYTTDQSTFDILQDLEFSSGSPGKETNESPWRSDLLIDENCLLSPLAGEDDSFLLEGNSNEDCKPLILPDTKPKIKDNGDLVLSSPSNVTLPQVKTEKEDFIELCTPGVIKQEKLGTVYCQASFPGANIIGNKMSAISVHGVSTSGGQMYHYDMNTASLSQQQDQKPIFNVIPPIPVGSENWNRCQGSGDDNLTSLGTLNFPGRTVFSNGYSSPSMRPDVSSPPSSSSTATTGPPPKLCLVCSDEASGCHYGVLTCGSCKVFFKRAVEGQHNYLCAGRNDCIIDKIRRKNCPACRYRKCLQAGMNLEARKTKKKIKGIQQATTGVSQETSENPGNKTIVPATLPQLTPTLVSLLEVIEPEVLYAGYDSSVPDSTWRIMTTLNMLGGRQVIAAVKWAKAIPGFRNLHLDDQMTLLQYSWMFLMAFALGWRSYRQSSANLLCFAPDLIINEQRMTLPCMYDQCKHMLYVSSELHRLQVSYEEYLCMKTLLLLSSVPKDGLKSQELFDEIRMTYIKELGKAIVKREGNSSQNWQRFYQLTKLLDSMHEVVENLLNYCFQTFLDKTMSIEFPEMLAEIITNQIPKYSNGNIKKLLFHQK
Briefly: Human Glucocorticoid Receptor (GR) Assay (fluorescence polarization, Panvera/Invitrogen kit). As to conditions: fluorescence polarization; GS Red tracer; 2 hours at room temperature; 100% control 10 μM Dexamethasone; read-out: Inhibition of GR binding, IC50. It is filed as binding. An outline of the steps: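 Fluorescence polarization competition with recombinant GR and GS Red fluorescent ligand plus stabilizing peptide and DTT in potassium phosphate/sodium molybdate/EDTA buffer with DMSO. Incubated 2 hours at room temperature in the dark; 0% control DMSO, 100% control 10 μM dexamethasone.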

Take `C[C@]12Cc3cnn(-c4ccc(F)cc4)c3C=C1CC[C@@H]1[C@@H]2[C@@H](O)C[C@@]2(C)[C@H]1CC[C@]2(OC(=O)C1CCCO1)C(=O)SCF` (stereo partly drawn) [Example 137, (1R,3aS,3bS,10aR,10bS,11S,12aS)-1-{[(Fluoromethyl)sulfanyl]carbonyl}-7-(4-fluorophenyl)-11-hydroxy-10a,12a-dimethyl-1,2,3,3a,3b,4,5,7,10a,10b,11,12,12a-tetradecahydrocyclopenta[5,6]naphtho[1,2-f]indazol-1-yl (2R)-tetrahydrofuran-2-carboxylate]: the IC50 was found to be 2.8 nM. In the case of `C[C@]12Cc3cnn(-c4ccc(F)cc4)c3C=C1CC[C@@H]1[C@@H]2[C@@H](O)C[C@@]2(C)[C@H]1CC[C@]2(OC(=O)c1cocn1)C(=O)SCF` [Example 45, (1R,3aS,3bS,10aR,10bS,11S,12aS)-1-{[(Fluoromethyl)thio]carbonyl}-7-(4-fluoro-phenyl)-11-hydroxy-10a,12a-dimethyl-1,2,3,3a,3b,4,5,7,10,10a,10b,11,12,12a-tetradecahydrocyclopenta[5,6]naphtho[1,2-f]indazol-1-yl 1,3-oxazole-4-carboxylate], the IC50 turned out to be 3.4 nM. Under `C[C@]12Cc3cnn(-c4ccc(F)nc4)c3C=C1CC[C@@H]1[C@@H]2[C@@H](O)C[C@@]2(C)[C@H]1CC[C@]2(OC(=O)[C@H]1CCCO1)C(=O)SCCO` [Example 186, (1R,3aS,3bS,10aR,10bS,11S,12aS)-7-(6-Fluoropyridin-3-yl)-11-hydroxy-1-{[(2-hydroxyethyl)sulfanyl]carbonyl}-10a,12a-dimethyl-1,2,3,3a,3b,4,5,7,10,10a,10b,11,12,12a-tetradecahydrocyclopenta[5,6]naphtho[1,2-f]indazol-1-yl (2R)-tetrahydrofuran-2-carboxylate] stands 2.3 nM. Under `C[C@]12Cc3cnn(-c4ccc(F)cc4)c3C=C1CC[C@@H]1[C@@H]2[C@@H](O)C[C@@]2(C)[C@H]1CC[C@]2(OC(=O)c1ccco1)C(=O)SCC(N)=O` [Example 90, (1R,3aS,3bS,10aR,10bS,11S,12aS)-1-{[(2-Amino-2-oxoethyl)sulfanyl]carbonyl}-7-(4-fluorophenyl)-11-hydroxy-10a,12a-dimethyl-1,2,3,3a,3b,4,5,7,10,10a,10b,11,12,12a-tetradecahydrocyclopenta[5,6]naphtho[1,2-f]indazol-1-yl furan-2-carboxylate] stands 4.6 nM; under `COC(=O)[C@@]1(OC(=O)c2ccco2)CC[C@H]2[C@@H]3CCC4=Cc5c(cnn5-c5ccc(F)cc5)C[C@]4(C)[C@H]3[C@@H](O)C[C@@]21C` [Example 66, Methyl (1R,3aS,3bS,10aR,10bS,11S,12aS)-7-(4-fluorophenyl)-1-[(furan-2-yl-carbonyl)oxy]-11-hydroxy-10a,12a-dimethyl-1,2,3,3a,3b,4,5,7,10,10a,10b,11,12,12a-tetradecahydrocyclopenta[5,6]naphtho[1,2-f]indazole-1-carboxylate], 3.3 nM; under `CCC(=O)O[C@]1(C(=O)SCC(N)=O)CC[C@H]2[C@@H]3CCC4=Cc5c(cnn5-c5ccc(F)cc5)C[C@]4(C)[C@H]3[C@@H](O)C[C@@]21C` [Example 13, (1R,3aS,3bS,10aR,10bS,11S,12aS)-{[(2-Amino-2-oxoethyl)thio]carbonyl}-7-(4-fluorophenyl)-11-hydroxy-10a,12a-dimethyl-1,2,3,3a,3b,4,5,7,10,10a,10b,11,12,12a-tetradecahydrocyclopenta[5,6]naphtho[1,2-f]indazol-1-yl propanoate], 3.1 nM.

As for `CCC(=O)O[C@]1(C(=O)SC)CC[C@H]2[C@@H]3CCC4=Cc5c(cnn5-c5ccc(F)cc5)C[C@]4(C)[C@H]3[C@@H](O)C[C@@]21C` [Example 21, (1R,3aS,3bS,10aR,10bS,11S,12aS)-7-(4-Fluorophenyl)-11-hydroxy-10a,12a-dimethyl-1-[(methylthio)carbonyl]-1,2,3,3a,3b,4,5,7,10,10a,10b,11,12,12a-tetradecahydropcyclopenta[5,6]naphtho[1,2-f]indazol-1-yl propanoate], the IC50 was determined as 2.7 nM. Under `C[C@]12Cc3cnn(-c4ccc(F)c(CF)c4)c3C=C1CC[C@@H]1[C@@H]2[C@@H](O)C[C@@]2(C)[C@H]1CC[C@]2(OC(=O)c1ccco1)C(=O)SCC#N` [Example 75, (1R,3aS,3bS,10aR,10bS,11S,12aS)-1-{[(Cyanomethyl)thio]carbonyl}-7-[4-fluoro-3-(fluoromethyl)phenyl]-11-hydroxy-10a,12a-dimethyl-1,2,3,3a,3 b,4,5,7,10,10a,10b,11,12,12a-tetradecahydrocyclopenta[5,6]naphtho[1,2-f]indazol-1-yl furan-2-carboxylate] stands 7.2 nM; under `C[C@]12Cc3cnn(-c4ccc(F)cc4)c3C=C1CC[C@@H]1[C@@H]2[C@@H](O)C[C@@]2(C)[C@H]1CC[C@]2(OC(=O)C1(C#N)CC1)C(=O)SCC#N` [Example 146, (1R,3aS,3bS,10aR,10bS,11S,12aS)-1-{[(Cyanomethyl)sulfanyl]carbonyl}-7-(4-fluorophenyl)-11-hydroxy-10a,12a-dimethyl-1,2,3,3a,3b,4,5,7,10,10a,10b,11,12,12a-tetradecahydrocyclopenta[5,6]naphtho[1,2-f]indazol-1-yl 1-cyanocyclopropane Carboxylate], 3.4 nM. As to `C[C@]12Cc3cnn(-c4ccc(F)cc4)c3C=C1CC[C@@H]1[C@@H]2[C@@H](O)C[C@@]2(C)[C@H]1CC[C@]2(OC(=O)c1ccno1)C(=O)SCF` [Example 60, (1R,3aS,3bS,10aR,10bS,11S,12aS)-1-{[(Fluoromethyl)thio]carbonyl}-7-(4-fluorophenyl)-11-hydroxy-10a,12a-dimethyl-1,2,3,3a,3b,4,5,7,10,10a,10b,11,12,12a-tetradecahydropcyclopenta[5,6]naphtho[1,2]-indazol-1-yl isoxazole-5-carboxylate], the IC50 is 4.5 nM. Under `Cc1ncsc1C(=O)O[C@]1(C(=O)SCC#N)CC[C@H]2[C@@H]3CCC4=Cc5c(cnn5-c5ccc(F)cc5)C[C@]4(C)[C@H]3[C@@H](O)C[C@@]21C` [Example 2, (1R,3aS,3bS,10aR,10bS,11S,12aS)-1-{[(Cyanomethyl)thio]carbonyl}-7-(4-fluorophenyl)-11-hydroxy-10a,12a-dimethyl-1,2,3,3a,3b,4,5,7,10,10a,10b,11,12,12a-tetradecahydrocyclopenta[5,6]naphtho[1,2-f]indazol-1-yl 4-methyl-1,3-thiazole-5-carboxylate] stands 7.4 nM.

With `C[C@]12Cc3cnn(-c4ccc(F)c(CF)c4)c3C=C1CC[C@@H]1[C@@H]2[C@@H](O)C[C@@]2(C)[C@H]1CC[C@]2(OC(=O)c1ccco1)C(=O)SCF` [Example 76, (1R,3aS,3bS,10aR,10bS,11S,12aS)-7-[4-Fluoro-3-(fluoromethyl)phenyl]-1-{[(fluoromethyl)thio]carbonyl}-11-hydroxy-10a,12a-dimethyl-1,2,3,3a,3b,4,5,7,10,10a,10b,11,12,12a-tetradecahydrocyclopenta[5,6]naphtho[1,2]-indazol-1-yl furan-2-carboxylate], the IC50 was 35 nM.

As to `CCC(=O)O[C@]1(C(=O)SCF)CC[C@H]2[C@@H]3CCC4=Cc5c(cnn5-c5ccc(F)cc5)C[C@]4(C)[C@H]3[C@@H](O)C[C@@]21C` [Example 19, (1R,3aS,3bS,10aR,10bS,11S,12aS)-1-{[(Fluoromethyl)thio]carbonyl}-7-(4-fluoro-phenyl)-11-hydroxy-10a,12a-dimethyl-1,2,3,3a,3b,4,5,7,10,10a,10b,11,12,12a-tetradecahydrocyclopenta[5,6]naphtho[1,2-f]indazol-1-yl propanoate], the IC50 is 3.7 nM.

In the case of `C=CCOCc1cc(-n2ncc3c2C=C2CC[C@@H]4[C@H]([C@@H](O)C[C@@]5(C)[C@H]4CC[C@]5(OC(=O)c4ccco4)C(=O)NC)[C@@]2(C)C3)ccc1F` [Example 78, (1R,3aS,3bS,10aR,10bS,11S,12aS)-7-{4-Fluoro-3-[(prop-2-en-1-yloxy)methyl]phenyl}-11-hydroxy-10a,12a-dimethyl-1-(methylcarbamoyl)-1,2,3,3a,3b,4,5,7,10,10a,10b,11,12,12a-tetradecahydrocyclopenta[5,6]naphtho[1,2-f]indazol-1-yl furan-2-carboxylate], the IC50 was determined as 12 nM.

On to `CC(=O)OCC(=O)O[C@]1(C(=O)SCC#N)CC[C@H]2[C@@H]3CCC4=Cc5c(cnn5-c5ccc(F)cc5)C[C@]4(C)[C@H]3[C@@H](O)C[C@@]21C` [Example 29, (1R,3aS,3bS,10aR,10bS,11S,12aS)-1-{[(Cyanomethyl)thio]carbonyl}-7-(4-fluoro-phenyl)-11-hydroxy-10a,12a-dimethyl-1,2,3,3a,3b,4,5,7,10,10a,10b,11,12,12a-tetradecahydrocyclopenta[5,6]naphtho[1,2-f]indazol-1-yl (acetyloxy)acetate], for which the IC50 was 5.7 nM.
